This experiment has as its system phospho-serine 2056 DNA-PK in HCT116 cells. Briefly: DNA-PK phosphorylation at serine 2056 (cellular), ELISA in bleomycin-treated HCT116 cells. It counts as cell-based. The conditions noted are these: read-out: IC50 pDNA-PK. In a few lines: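 HCT116, MEM alpha + 10% FCS, 37 °C/10% CO2, seeded o/n. Cpd + 10 μM bleomycin, 6 h. ELISA, chemiluminescence; phospho/total DNA-PKcs ratio, DMSO = blank.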

The mark [1] stands for this setting: cellular DNA-PK phosphorylation at serine 2056, HCT116 cells.
Setting [2] is: Homo sapiens, HCT-116, cellular DNA-PK phosphorylation at serine 2056, HCT116 cells.
Setting [3] is: Homo sapiens, HCT-116, phospho-serine 2056 DNA-PK, bleomycin-treated HCT116 cells, class symbols A-D.
The mark [4] stands for this setting: Homo sapiens, HCT-116, 6 h, cellular, HCT116 cells, 10 μM bleomycin, six hours.
[5] abbreviates: Homo sapiens, HCT-116, phospho-serine 2056 DNA-PK, bleomycin-treated HCT116 cells.

Where two headings read alike, the source gives them in different places.

In the case of `COc1cncnc1C(O)c1cc(-c2ncnc3cc(N4CCOCC4)ccc23)ccc1Cl` (stereo not shown) [Example 409, [2-Chloro-5-(7-morpholin-4-yl-quinazolin-4-yl)-phenyl]-(5-methoxy-pyrimidin-4-yl)-methanol (Ena 1)], the IC50 under setting [1] lay within 500 to 5000 nM.
Consider `OC(c1cc(-c2ncnc3cc(N4CCOCC4)ccc23)c(F)cc1F)c1ncnc2ccsc12` (stereo not shown) [Example 439, [2,4-Difluoro-5-(7-morpholin-4-yl-quinazolin-4-yl)-phenyl]thieno[3,2-d}-pyrimidin-4-yl-methanol], for which, under setting [2], the IC50 was less than 500 nM.
As to `Cc1nc(C(O)c2cc(-c3ncnc4cc(N5CCOCC5)ccc34)cnc2F)sc1C` (stereo not shown) [Example 205, (4,5-Dimethyl-thiazol-2-yl)-[2-fluoro-5-(7-morpholin-4-yl-quinazolin-4-yl)-pyridin-3-yl]-methanol], the IC50 under setting [3] lay within 10000 to 30000 nM.
Same read-out and setting: with `O=C(O)COc1ccc(C(O)c2cc(-c3ncnc4cc(N5CCOCC5)ccc34)c(F)cc2Cl)nn1` (stereo not shown) [Example 113, (6-{[2-Chloro-4-fluoro-5-(7-morpholin-4-yl-quinazolin-4-yl)-phenyl]hydroxy-methyl}pyridazin-3-yl-oxy)acetic acid] the figure was 10000 to 30000 nM; with `N#Cc1ccc(C(O)c2cc(-c3ncnc4cc(N5CCOCC5)ccc34)c(F)cc2Cl)nn1` (stereo not shown) [Example 118, 6-{[2-Chloro-4-fluoro-5-(7-morpholin-4-yl-quinazolin-4-yl)-phenyl]hydroxy-methyl}pyridazine-3-carbonitrile], 500 to 5000 nM.
Take `Cn1c(C(O)c2ccc(F)c(-c3ncnc4cc(N5CCOCC5)ccc34)c2)cccc1=O` (stereo not shown) [Example 376, 6-{[4-Fluoro-3-(7-morpholin-4-yl-quinazolin-4-yl)-phenyl]hydroxy-methyl}-1-methyl-1H-pyridin-2-one (Ena 1)]: the IC50 under setting [1] was less than 500 nM.
As for `OC(c1ccc2nccn2n1)c1cc(-c2ncnc3cc(N4CCOCC4)ccc23)c(F)cc1Cl` (stereo not shown) [Example 57, [2-Chloro-4-fluoro-5-(7-morpholin-4-yl-quinazolin-4-yl)phenyl]-imidazo[1,2-b]pyridazin-6-ylmethanol], the IC50 (cellular, HCT116 cells, 10 μM bleomycin, six hours) was less than 500 nM.
As to `Cn1c(C(O)c2cc(-c3ncnc4cc(N5CCOCC5)ccc34)c(F)cc2F)cccc1=O` (stereo not shown) [Example 381, 6-{[2,4-Difluoro-5-(7-morpholin-4-yl-quinazolin-4-yl)-phenyl]hydroxy-methyl}-1-methyl-1H-pyridin-2-one (Ena 1)], under setting [1], the IC50 was 500 to 5000 nM.
In the case of `CC(C)n1cc(C(O)c2ccc(F)c(-c3ncnc4cc(N5CCOCC5)ccc34)c2)cn1` (stereo not shown) [Example 197, [4-Fluoro-3-(7-morpholin-4-yl-quinazolin-4-yl)-phenyl]-(1-isopropyl-1 H-pyrazol-4-yl)-methanol], the IC50 under setting [3] lay within 5000 to 10000 nM.
For `COc1ccc(C(O)c2ccc(F)c(-c3ncnc4cc(N5CCOCC5)ccc34)c2)nn1` (stereo not shown) [Example 74, [4-Fluoro-3-(7-morpholin-4-yl-quinazolin-4-yl)phenyl]-(6-methoxypyridazin-3-yl)methanol], the IC50 under setting [4] was less than 500 nM.
`OC(c1ccc(F)c(-c2ncnc3cc(N4CCOCC4)ccc23)c1)c1ncnn2cccc12` (stereo not shown) [Example 345, [4-Fluoro-3-(7-morpholin-4-yl-quinazolin-4-yl)-phenyl]pyrrolo[2,1-f]-[1,2,4]triazin-4-yl-methanol]: under setting [5], the IC50 was less than 500 nM.
With `OC(c1ccc(F)c(-c2ncnc3cc(N4CCOCC4)ncc23)c1)c1nccs1` (stereo not shown) [Example 140, [4-Fluoro-3-(7-morpholin-4-yl-pyrido[4,3-d}-pyrimidin-4-yl)-phenyl]thiazol-2-yl-methanol], the IC50 under setting [3] lay within 10000 to 30000 nM.
Consider `OC(c1ccnnc1)c1cc(-c2ncnc3cc(N4CCOCC4)ccc23)c(F)cc1Cl` (stereo not shown) [Example 36, [2-Chloro-4-fluoro-5-(7-morpholin-4-yl-quinazolin-4-yl)phenyl]-pyridazin-4-ylmethanol], for which the IC50 under setting [4] was less than 500 nM.
For `OC(c1ccc(F)c(-c2ncnc3cc(N4CCOCC4)ccc23)c1)c1ncnc2ccoc12` (stereo not shown) [Example 442, [4-Fluoro-3-(7-morpholin-4-yl-quinazolin-4-yl)-phenyl]furo[3,2-d}-pyrimidin-4-yl-methanol], under setting [2], the IC50 was less than 500 nM.
As for `COc1cnc(Cl)c(C(O)c2ccc(F)c(-c3ncnc4cc(N5CCOCC5)ccc34)c2)n1` (stereo not shown) [Example 26, (3-Chloro-6-methoxy-pyrazin-2-yl)-[4-fluoro-3-(7-morpholin-4-yl-quinazolin-4-yl)phenyl]-methanol], the IC50 under setting [4] was less than 500 nM.
On to `Cc1nccnc1C(C(N)=O)c1ccc(F)c(-c2ncnc3cc(N4CCOCC4)ccc23)c1` (stereo not shown) [Example 327, 2-[4-Fluoro-3-(7-morpholin-4-yl-quinazolin-4-yl)-phenyl]-2-(3-methyl-pyrazin-2-yl)-acetamide], for which the 50% inhibitory concentration (IC50) under setting [5] was in the range of 10000 to 30000 nM.
Regarding `OC(c1ccc(F)c(-c2ncnc3cc(N4CCOCC4)ccc23)c1)c1ncccc1Cl` (stereo not shown) [Example 42, (3-Chloro-pyridin-2-yl)-[4-fluoro-3-(7-morpholin-4-yl-quinazolin-4-yl)phenyl]-methanol], the IC50 under setting [4] was less than 500 nM.
With `NC(=O)C(c1cc(-c2ncnc3cc(N4CCOCC4)ccc23)c(F)cc1Cl)c1ncccc1Cl` (stereo not shown) [Example 289, 2-[2-Chloro-4-fluoro-5-(7-morpholin-4-yl-quinazolin-4-yl)-phenyl]-2-(3-chloro-pyridin-2-yl)-acetamide], under setting [5], the IC50 was in the range of 500 to 5000 nM.
As to `COc1nnc(C(O)c2cc(-c3ncnc4cc(N5CCOCC5)ccc34)c(F)cc2Cl)c2ccncc12` (stereo not shown) [Example 40, [2-Chloro-4-fluoro-5-(7-morpholin-4-yl-quinazolin-4-yl)phenyl]-(4-methoxypyrido-[3,4-d}pyridazin-1-yl)-methanol], the IC50 under setting [4] lay within 500 to 5000 nM.
For the compound `[2H]C1([2H])OC([2H])([2H])C([2H])([2H])N(c2ccc3c(-c4cc([C@H](O)c5nccnc5C)ccc4F)ncnc3c2)C1([2H])[2H]` [Example 243, (S)-[4-Fluoro-3-[7-(2,2,3,3,5,5,6,6-octadeuterio-morpholin-4-yl)quinazolin-4-yl]phenyl]-(3-methylpyrazin-2-yl)methanol], where the note is “phospho-serine 2056 DNA-PK, bleomycin-treated HCT116 cells”, the IC50 fell in the range of 500 to 5000 nM.
Take `OC(c1cccnn1)c1cc(-c2ncnc3cc(N4CCOCC4)ccc23)ccc1Cl` (stereo not shown) [Example 470, [2-Chloro-5-(7-morpholin-4-yl-quinazolin-4-yl)-phenyl]pyridazin-3-yl-methanol]: the IC50 under setting [1] is less than 500 nM.
Turning to `CC(O)(c1cncc(-c2ncnc3cc(N4CCOCC4)ccc23)c1)c1nccs1` (stereo not shown) [Example 152, 1-[5-(7-Morpholin-4-ylquinazolin-4-yl)-pyridin-3-yl]-1-thiazol-2-ylethanol], under setting [3], the IC50 was in the range of 10000 to 30000 nM.
For `OC(c1cc(-c2ncnc3cc(N4CCOCC4)ccc23)c(F)cc1Cl)c1ncnc2ccoc12` (stereo not shown) [Example 440, [2-Chloro-4-fluoro-5-(7-morpholin-4-yl-quinazolin-4-yl)-phenyl]furo[3,2-d}-pyrimidin-4-yl-methanol], under setting [2], the IC50 is less than 500 nM.
As to `Cc1nccnc1C(O)c1cc(-c2ncnc3cc(N4CCOCC4)ccc23)c(F)cc1F` (stereo not shown) [Example 84, [2,4-Difluoro-5-(7-morpholin-4-yl-quinazolin-4-yl)-phenyl]-(3-methyl-pyrazin-2-yl)methanol], the concentration for half-maximal inhibition (IC50) under setting [4] is less than 500 nM.
On to `[2H]C1([2H])OC([2H])([2H])C([2H])([2H])N(c2ccc3c(-c4cc(C(O)c5nccnc5OC)c(Cl)cc4F)ncnc3c2)C1([2H])[2H]` (stereo not shown) [Example 241, [2-Chloro-4-fluoro-5-[7-(2,2,3,3,5,5,6,6-octadeuterio-morpholin-4-yl)quinazolin-4-yl]phenyl]-(3-methoxypyrazin-2-yl)methanol], for which the IC50 under setting [5] is less than 500 nM.

Source of the values: US11065253B2, “Arylquinazolines” (Merck Patent GmbH, priority 2013, dated 2021).
